# From PubChem BioAssay AID1996
# Settings: buffer; pH 7.4; 200.0 µM
row,Structure (SMILES),solubility kinetic [µg/mL]
1,O=C(c1cccc([N+](=O)[O-])c1)c1ccccn1,> 34.2
2,COc1cccc(CN(C)C(=S)Nc2cccc(C)c2)c1,40.4
3,Cn1c(S(=O)(=O)Cc2ccc(Cl)cc2)nc2ccccc21,8.7
4,Cl.c1ccc(-c2ccc(OCCN3CCOCC3)cc2)cc1,29.8
5,O=C(CN1CCCCCC1)Nc1ccc(Cl)cc1F,28.1
6,Cc1ccccc1Nc1nc(N)nc(COC(=O)c2c(C)noc2C)n1,> 53.2
7,Cc1ccc(C(=O)N2CCCC(Nc3ccc(F)c(F)c3)C2)cn1 (stereo not given),> 49.7
8,COC(=O)c1ccccc1NC(=O)c1sc(Cl)nc1C,44
9,CN(CC(=O)Nc1c(Cl)cccc1Cl)C(=O)c1cccn1C,> 51
10,O=C(CCNc1ccc(Cc2ccncc2)cc1)c1ccc([N+](=O)[O-])cc1,11.6
11,CCNC(=O)COC(=O)CCC(=O)c1ccc(F)cc1,> 42.2
12,CNC(=O)CSc1nnc(-c2ccc3c(c2)OCO3)n1C,> 46
13,COCCNCC(=O)N1CCCCCC1.O=C(O)C(=O)O,> 45.7
14,COc1ccc(CCNCC2CCCO2)cc1.Cl (stereo not given),35.2
15,CCN(CC)C(=O)CN1C(=O)/C(=C/c2ccccc2)SC1=S,2.5
16,Cc1ccc(N2C(=O)CSC2c2cccnc2)c(Cl)c1 (stereo not given),> 45.7
17,CCCOc1ccc(Cc2c(O)nc(SC)[nH]c2=O)cc1,44.6
18,CC(C)c1ccc(OCC(=O)N2CCCN(C)CC2)cc1,> 43.6
19,COP(=O)(c1ccc(N(C)C)cc1)C(O)c1ccccc1 (stereo not given),> 45.8
20,CCSc1ncc(Cl)c(C(=O)Nc2ccccc2Cl)n1,< 0.2
21,CC(C)CC(=O)NC(c1ccccc1)c1c(O)ccc2ccccc12 (stereo not given),< 0.7
22,COc1ccc(C2SCC(=O)N2c2ccc(C)cc2)cc1 (stereo not given),37.5

row,Structure (SMILES),solubility kinetic [µg/mL]
1,Cc1ccc(S(=O)(=O)NCCC2=CCCCC2)cc1,23
2,CN(C(=O)c1coc(=O)c2ccccc12)c1ccccc1Cl,44.2
3,CC(C)Cc1nc(N2CCNCC2)c(C#N)c2c1CCC2,41.1
4,O=C(O)c1c(C(=O)O)c(-c2ccc(F)cc2)n2c1CCC2,> 43.4
5,CCOc1ccccc1N1CCN(C(=O)CC(C)(C)C)CC1,45.1
6,COc1ccc(Br)cc1/C=C/C(=O)OCC(=O)NCCc1ccc(S(N)(=O)=O)cc1,13.8
7,COc1ccc(COc2cccnc2N)cc1,20.1
8,Cc1c(CNCCc2ccccc2)c(C(=O)O)c(C)n1-c1ccccc1,> 52.3
9,CCCC(CCC)C(=O)OC1C[C@H]2CC[C@@H](C1)[N+]2(C)C.[Br-] (stereo not given in full),> 54.4
10,CCN(CCO)c1nc(N2CCCCC2)c2cnn(C)c2n1,> 45.7
11,COc1ccc2oc(C(=O)NC(C)(C)C)c(C)c2c1,1.8
12,Cc1ccc(S(=O)(=O)N2CCOCC2)cc1NC(=O)CN1C(=O)NC(C)(c2ccc(Cl)cc2Cl)C1=O (stereo not given),46.1
13,Cc1cc(C)cc(NC(=O)c2cc(C)n(Cc3cccs3)c2C)c1,2.3
14,CCOc1cc(CNCc2ccccn2)cc(Cl)c1OCC.Cl,35.5
15,COc1cc(CNC(=O)C2CCCC2)cc(OC)c1OC,> 44
16,Cc1onc(-c2ccc(Cl)cc2Cl)c1C(=O)/C=C/N(C)C,> 48.8
17,C=CCOc1ccc(C(=O)Nc2ccc3c(c2)n(C)c(=O)n3C)cc1,11.4
18,Cc1nc2ccccc2cc1C(=O)Nc1ccccc1Cl,6.7
19,O=C(COc1ccccc1Cl)N1CCCCCCC1,31.4
20,CCCCc1ncc(CN2CCN(Cc3ccc(C)cc3)C(CCO)C2)[nH]1 (stereo not given),49.1
21,NC(=O)c1cc(S(=O)(=O)NCCCc2ccco2)cs1,> 47.2
22,Cc1c(O)ccc2c(CN3CCOCC3)cc(=O)oc12,> 41.3

row,Structure (SMILES),solubility kinetic [µg/mL]
1,Nc1[nH]c(=O)ncc1F,> 19.4
2,CCOC(=O)c1sc(S(C)=O)c2c1CCc1conc1-2 (stereo not given),> 46.7
3,Cc1cc(Nc2cccc(Cl)c2)c2ccccc2n1,32.5
4,CNC(=S)Nc1cccc(C(=O)OC)c1,> 33.6
5,O=C(Nc1ccc(Br)cc1)c1ccc2ncsc2c1,7.9
6,O=[N+]([O-])c1cccc2c1ccc1ncccc12,1.3
7,O=C(NCCNC(=O)c1cc(Cl)ccc1Cl)c1cnccn1,> 50.9
8,N#Cc1cccnc1N1CCC(C(N)=O)CC1,> 34.5
9,COCCNC(=O)CN1C(=O)NC2(CCCCCC2)C1=O,> 44.6
10,CCCN1CN(c2ccccc2)C(=S)N(c2ccccc2)C1,> 46.7
11,Cc1[nH]c(=O)[nH]c(=O)c1S(=O)(=O)Nc1ccc(F)cc1Cl,> 50.1
12,Cc1cc(/C(N)=N/OC(=O)Nc2ccc(Cl)cc2)no1,15.9
13,Clc1ccc(SCc2csc(N3CCOCC3)n2)cc1,10.2
14,c1ccc(CSc2cc3ccccc3[nH]2)cc1,2.8
15,C=CCN=C1S/C(=C/c2cccc([N+](=O)[O-])c2)C(=O)N1CC=C,1.5
16,CC(C)(CCO)NC(=S)NC1CC2C=CC1C2 (stereo not given),> 38.2
17,CC(C)S(=O)(=O)c1csc(C(=O)Nc2ccc(F)cc2)c1N,13.6
18,Cc1nc(C)c(C(=O)O)c(-c2ccsc2)c1C(=O)O,> 41.6
19,O=S1(=O)CCC(NS(=O)(=O)c2ccc3ccccc3c2)C1 (stereo not given),> 48.8
20,CC1CCN(C(=O)COC(=O)c2cn(C)c3ccccc23)CC1,> 47.2

# Second part, the compound after the results:
row,solubility kinetic [µg/mL],Structure (SMILES)
1,28.7,COc1cc(NC(=O)c2onc(C)c2Cl)cc(OC)c1OC
2,3.3,Cc1ccc(N=Cc2c(O)c3ccccc3n(C)c2=O)cc1
3,31.3,Cc1ccc(S(=O)(=O)N2CCN(C)CC2)cc1C
4,17.2,O=c1[nH]c2ccccc2c(O)c1-c1ccccc1
5,> 45.2,COc1ccc(NC(=O)COC(=O)C2CC3C=CC2C3)cc1 (stereo not given)
6,14,CCCc1ccc2oc(C(=O)N(C)Cc3nccs3)c(C)c2c1
7,10.4,CC(C)N(CC(N)=O)c1ncnc2sc(-c3ccccc3)cc12
8,> 42.8,NC(=O)COC(=O)c1ccccc1OCc1ccccc1
9,0.6,CC(=O)Nc1ccc(NC(=O)c2cc(=O)c3cc(C)c(C)cc3o2)cc1
10,7.7,CC(=O)OC1CC(c2cc(C(C)(C)C)c(O)c(C(C)(C)C)c2)=NO1 (stereo not given)
11,> 48.3,Cl.N#C/C(=C\c1ccccc1)C(=O)NCCN1CCOCC1
12,57.7,CCOC(=O)Nc1ccc2c(c1)N(C(=O)CN(C)C)c1ccccc1CC2.Cl
13,5,O=C(Cc1cc2ccccc2o1)NCc1ccc(F)cc1
14,> 54.8,COc1ccc(-c2nsc(SCC(=O)NCC3CCCO3)n2)cc1 (stereo not given)
15,1.7,Cc1ccc(NC(=S)NC(=O)C2CCCCC2)c(Br)c1
16,> 56.5,COc1ccc(-c2cc(-c3ccccc3)c(C#N)c(SCC(=O)O)n2)cc1
17,41.8,CCCc1ccc2oc(C(=O)N3CCC[C@H]3CO)c(C)c2c1
18,> 50.9,COc1ccc(N2CCN(CC(=O)NCc3ccccc3)CC2)cc1
19,> 57.7,Cn1c(C(=O)O)ccc1S(=O)(=O)N(Cc1ccccc1)Cc1ccccc1

row,solubility kinetic [µg/mL],Structure (SMILES)
1,14.9,O=C(Nc1ccc(O)cc1)/C(=C\C=C\c1ccccc1)NC(=O)c1ccccc1
2,> 60,NC(=O)c1ccc[n+](CC(=O)c2ccc(Br)cc2)c1.[Br-]
3,6.8,CC(NS(=O)(=O)c1ccc(N)cc1)C1CC2CCC1C2 (stereo not given)
4,> 56.9,O=C(COC(=O)C1COc2ccccc2O1)Nc1ccccc1OC(F)F (stereo not given)
5,43,Cc1nc2ccccc2cc1C(=O)N(C)Cc1ccccc1
6,29.3,Cn1c(N2CCOCC2)cc(=O)n(C)c1=O
7,> 44,N#Cc1ccc(C(=O)N2CCN(c3ncccn3)CC2)cc1
8,8.2,O=C(COC(=O)/C=C/c1ccccc1Cl)NC(=O)NC1CCCC1
9,15.8,Cc1ccnc(NCc2cccc3ccccc23)c1.Cl
10,37.2,CC1CCCCC1NC(=O)CNC(=O)c1ccco1 (stereo not given)
11,2.5,O=C(COC(=O)c1ccc2ccccc2c1O)NCC(F)(F)F
12,7.5,Nc1nc(CCl)nc(N(c2ccccc2)c2ccccc2)n1
13,> 46.6,O=C(CCNS(=O)(=O)c1ccccc1)N1CCCCCC1
14,19.3,Cc1noc(/C=C/c2ccccn2)c1[N+](=O)[O-]
15,> 43.9,OC(C#CCN1CCCC1)(c1ccccc1)c1cccnc1 (stereo not given)
16,> 62.3,CC(C)C(NC(=O)c1ccccc1F)C(=O)NCC(c1ccco1)N1CCCCC1 (stereo not given)
17,8.6,O=C(CN1CCN(C(=O)c2ccc(OCc3cn4ccccc4n3)cc2)CC1)Nc1cccc(F)c1
18,43.4,Cc1ccc(CNc2nc(N)c([N+](=O)[O-])c(NCCO)n2)cc1
19,> 52,O=C(c1ccc(NS(=O)(=O)c2ccccc2)cc1)N1CCOCC1

row,solubility kinetic [µg/mL],Structure (SMILES)
1,> 49,CC(=O)N(c1ccc(Cl)cc1)c1cn(C(C)=O)c2ccccc12
2,24.9,COc1ccc2nc(N(CCN(C)C)C(=O)c3ccc4ccccc4c3)sc2c1.Cl
3,15.3,FC(F)Oc1ccc(N=C2SCC3CCCCN23)cc1 (stereo not given)
4,9.5,Cn1cc(SCC(=O)NC2CCCCC2)c2ccccc21
5,> 59.4,O=C(COC(=O)COc1ccc(Cl)cc1Cl)NC1CCS(=O)(=O)C1 (stereo not given)
6,22.2,CCOc1ccccc1C(=O)NC(C)CCc1ccccc1 (stereo not given)
7,25.8,Cn1cc(CCC(=O)NCCCc2ccccc2)c2ccccc21
8,8.5,CCc1ccc(CN2CCSCC2)cc1
9,23.4,Cc1cccc(OCC(=O)NCc2ccc(F)cc2)c1
10,52.5,C[C@@H](C(=O)Nc1ccc(SC(F)F)cc1)N1C(=O)C2CCCCC2C1=O (stereo not given in full)
11,> 38.4,CCOC(=O)CNC(=O)Cc1ccc(Cl)cc1
12,5.2,O=c1oc(-c2ccccc2Br)nc2ccccc12
13,> 41.3,O=C(N[C@@H](Cc1ccccc1)C(=O)O)c1cccs1
14,25.3,COc1ccc(OC)c(NC(=O)C2=C(C)NC(=O)NC2c2cccs2)c1 (stereo not given)
15,44.2,CCc1nc2oc3ccccc3c(=O)c2c(=O)n1-c1ccc(C)cc1
16,< 0.3,Cc1cc(C)nc(S/C=C/C(=O)c2ccc(F)cc2)n1
17,> 52.4,O=C(c1ccncc1)N1CCN(S(=O)(=O)c2ccc(F)cc2)CC1
18,0.4,Cc1cc2c(=O)n(C)c(SCC(=O)Nc3ccccc3)nc2s1
